Data set [1] can be described thus: Stability: discoloration in air. The note with it: Monomer alone; in air after only a few hours.
A short description of another data set: physchem. The source says:
The cyclodextrin employed was in each case 2,6-dimethyl-β-cyclodextrin.

≈ marks a conversion by molar mass, not a printed value.

With `c1cc[nH]c1` [Pyrrole, pyrrole], in data set [1], the Stability entry is given as “Pyrrole: discoloration”.
As to `c1scc2c1OCCO2` [EDT, 3,4-ethylenedioxythiophene], in the data set “physchem”, the “increase of water solubility” value is “more than 30 fold”. Besides, in the data set “physchem” (20 °C, water), the solubility came out at 2100 µg/mL (≈ 14.8 mM).

What is called solubility is how much of the substance goes into solution per volume.

(Values after US6805816B1, “Method of producing π-conjugated polymers” (Bayer Aktiengesellschaft, priority 1999, dated 2004).)
